Literature values as cited in patent US11903950B2, “BCL-2 inhibitors” (Newave Pharmaceutical Inc., priority 2018, dated 2024).

What was measured:
[1] = tested on: xenograft models of small-cell lung cancer and acute lymphoblastic leukemia; conditions: oral administration, alone
circulating platelets = conditions: clinical trial, patients

CC1(C)CCC(c2ccc(Cl)cc2)=C(CN2CCN(c3ccc(C(=O)NS(=O)(=O)c4ccc(N[C@H](CCN5CCOCC5)CSc5ccccc5)c(S(=O)(=O)C(F)(F)F)c4)cc3)CC2)C1 [ABT-263]
tumor regression [1]: complete tumor regressions
number of circulating platelets (circulating platelets): rapid, concentration-dependent decrease in the number of circulating platelets
